Measurements reported in PubChem BioAssay (NCI).
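GI50 is the concentration that inhibits growth by half. TGI: concentration producing complete growth inhibition.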

How the values were obtained:
Test in all cases: NCI anticancer screen, dose series, 384-well format
HL-60(TB) leukemia = tested on: HL-60(TB) leukemia
786-0 renal = tested on: 786-0 renal
SN12C renal = tested on: SN12C renal
SNB-75 CNS = tested on: SNB-75 CNS
SF-295 CNS = tested on: SF-295 CNS
MALME-3M melanoma = tested on: MALME-3M melanoma
U251 glioblastoma = tested on: U251 glioblastoma
NCI-H226 lung = tested on: NCI-H226 lung
PC-3 prostate = tested on: PC-3 prostate
K-562 leukemia = tested on: K-562 leukemia
MOLT-4 leukemia = tested on: MOLT-4 leukemia
RXF 393 renal = tested on: RXF 393 renal
MDA-MB-468 breast = tested on: MDA-MB-468 breast
KM12 colon = tested on: KM12 colon
OVCAR-8 ovarian = tested on: OVCAR-8 ovarian
SF-539 CNS = tested on: SF-539 CNS
NCI-H322M lung = tested on: NCI-H322M lung
ACHN renal = tested on: ACHN renal
HCC-2998 colon = tested on: HCC-2998 colon
A549 NSCLC = tested on: A549 NSCLC
HCT-116 colon = tested on: HCT-116 colon
MDA-MB-435 melanoma = tested on: MDA-MB-435 melanoma
UACC-257 melanoma = tested on: UACC-257 melanoma
SK-OV-3 ovarian = tested on: SK-OV-3 ovarian
SNB-19 CNS = tested on: SNB-19 CNS
MCF7 breast = tested on: MCF7 breast
UO-31 renal = tested on: UO-31 renal
HT29 colon = tested on: HT29 colon
EKVX NSCLC = tested on: EKVX NSCLC
SF-268 CNS = tested on: SF-268 CNS
NCI-H460 NSCLC = tested on: NCI-H460 NSCLC
BT-549 breast = tested on: BT-549 breast
DU-145 prostate = tested on: DU-145 prostate
IGROV1 ovarian = tested on: IGROV1 ovarian
HS 578T breast = tested on: HS 578T breast
OVCAR-4 ovarian = tested on: OVCAR-4 ovarian
OVCAR-5 ovarian = tested on: OVCAR-5 ovarian
T-47D breast = tested on: T-47D breast
NCI-H23 lung = tested on: NCI-H23 lung
OVCAR-3 ovarian = tested on: OVCAR-3 ovarian
MDA-MB-231 breast = tested on: MDA-MB-231 breast
M14 melanoma = tested on: M14 melanoma
HOP-92 NSCLC = tested on: HOP-92 NSCLC
NCI-H522 lung = tested on: NCI-H522 lung
RPMI-8226 leukemia = tested on: RPMI-8226 leukemia
HOP-62 NSCLC = tested on: HOP-62 NSCLC
SW-620 colon = tested on: SW-620 colon
SK-MEL-28 melanoma = tested on: SK-MEL-28 melanoma
LOX IMVI melanoma = tested on: LOX IMVI melanoma
HCT-15 colon = tested on: HCT-15 colon
SK-MEL-5 melanoma = tested on: SK-MEL-5 melanoma
TK-10 renal = tested on: TK-10 renal
A498 renal = tested on: A498 renal
UACC-62 melanoma = tested on: UACC-62 melanoma
NCI/ADR-RES ovarian = tested on: NCI/ADR-RES ovarian
CAKI-1 renal = tested on: CAKI-1 renal

`O=C(Nc1cccc(Cl)c1)Nc1ncc(CCNc2ncnc3ccsc23)s1` showed a GI50 (HL-60(TB) leukemia) of less than 0.01 µM, a TGI (HL-60(TB) leukemia) of 3.63 µM and a GI50 ([…]-0 renal) of 1.97 µM. It also gave a TGI (786-0 renal) of 11.4 µM, a GI50 (SN12C renal) of 3.01 µM and a TGI (SN12C renal) of 18.2 µM. For the same compound, the GI50 (SNB-75 CNS) was 4.06 µM, the TGI (SNB-75 CNS) was 17 µM and the GI50 (SF-295 CNS) was 2.17 µM. It also gave a TGI (SF-295 CNS) of 18.1 µM, a GI50 (MALME-3M melanoma) of 6.41 µM and a TGI (MALME-3M melanoma) of 19.5 µM. The GI50 (U251 glioblastoma) was 7.52 µM, the TGI (U251 glioblastoma) was 20.7 µM and the GI50 (NCI-H226 lung) was 2.94 µM. For the same compound, the TGI (NCI-H226 lung) was 16.3 µM, the GI50 (PC-3 prostate) was 3.15 µM and the TGI (PC-3 prostate) was 13.2 µM. The GI50 (K-562 leukemia) was 1.34 µM, the TGI (K-562 leukemia) was 14.1 µM and the GI50 (MOLT-4 leukemia) was less than 0.01 µM. The GI50 (RXF 393 renal) was 0.0169 µM, the TGI (RXF 393 renal) was 2.55 µM and the GI50 (MDA-MB-468 breast) was 0.0283 µM. It also gave a TGI (MDA-MB-468 breast) of 0.242 µM, a GI50 (KM12 colon) of 0.118 µM and a TGI (KM12 colon) of 13.2 µM. It also gave a GI50 (OVCAR-8 ovarian) of 2.2 µM, a TGI (OVCAR-8 ovarian) of 12 µM and a GI50 (SF-539 CNS) of 0.306 µM. For the same compound, the TGI (SF-539 CNS) was 14.7 µM, the GI50 (NCI-H322M lung) was 6.64 µM and the TGI (NCI-H322M lung) was 19.6 µM. It also gave a GI50 (ACHN renal) of 1.52 µM, a TGI (ACHN renal) of 17.3 µM and a GI50 (HCC-2998 colon) of 10.3 µM. The TGI (HCC-2998 colon) was 22 µM, the GI50 (A549 NSCLC) was 0.121 µM and the TGI (A549 NSCLC) was 15.4 µM. The GI50 (HCT-116 colon) was 0.754 µM, the TGI (HCT-116 colon) was 14.5 µM and the GI50 (MDA-MB-435 melanoma) was 10 µM. The TGI (MDA-MB-435 melanoma) was 21.6 µM, the GI50 (UACC-257 melanoma) was 4.81 µM and the TGI (UACC-257 melanoma) was 18.3 µM. The GI50 (SK-OV-3 ovarian) was 5.02 µM, the TGI (SK-OV-3 ovarian) was 19 µM and the GI50 (SNB-19 CNS) was 11.7 µM. The TGI (SNB-19 CNS) was 24 µM, the GI50 (MCF7 breast) was 1.49 µM and the TGI (MCF7 breast) was 13 µM. The GI50 (UO-31 renal) was 3.5 µM, the TGI (UO-31 renal) was 19.7 µM and the GI50 (HT29 colon) was 2.42 µM. The TGI (HT29 colon) was 14.5 µM, the GI50 (EKVX NSCLC) was 1.68 µM and the TGI (EKVX NSCLC) was 16.1 µM. It also gave a GI50 (SF-268 CNS) of less than 0.01 µM, a TGI (SF-268 CNS) of 0.781 µM and a GI50 (NCI-H460 NSCLC) of 0.0433 µM. The TGI (NCI-H460 NSCLC) was 10.6 µM, the GI50 (BT-549 breast) was 1.07 µM and the TGI (BT-549 breast) was 11.4 µM. The GI50 (DU-145 prostate) was 4.52 µM, the TGI (DU-145 prostate) was 18.1 µM and the GI50 (IGROV1 ovarian) was 3.39 µM. The TGI (IGROV1 ovarian) was 16 µM, the GI50 (HS 578T breast) was 0.104 µM and the TGI (HS 578T breast) was 6.01 µM. It also gave a GI50 (OVCAR-4 ovarian) of 9.02 µM, a TGI (OVCAR-4 ovarian) of 21.3 µM and a GI50 (OVCAR-5 ovarian) of 8.83 µM. The TGI (OVCAR-5 ovarian) was 21.2 µM, the GI50 (T-47D breast) was 0.228 µM and the TGI (T-47D breast) was 2.36 µM. It also gave a GI50 (NCI-H23 lung) of 2.59 µM, a TGI (NCI-H23 lung) of 16 µM and a GI50 (OVCAR-3 ovarian) of 0.174 µM. It also gave a TGI (OVCAR-3 ovarian) of 15 µM, a GI50 (MDA-MB-231 breast) of 8.07 µM and a TGI (MDA-MB-231 breast) of 20.8 µM. The GI50 (M14 melanoma) was 1.79 µM, the TGI (M14 melanoma) was 14.8 µM and the GI50 (HOP-92 NSCLC) was 3.53 µM. For the same compound, the TGI (HOP-92 NSCLC) was 18.4 µM, the GI50 (NCI-H522 lung) was 0.356 µM and the TGI (NCI-H522 lung) was 12.1 µM. For the same compound, the GI50 (RPMI-8226 leukemia) was 0.308 µM, the TGI (RPMI-8226 leukemia) was 11.5 µM and the GI50 (HOP-62 NSCLC) was 0.356 µM. For the same compound, the TGI (HOP-62 NSCLC) was 11 µM, the GI50 (SW-620 colon) was 14.6 µM and the TGI (SW-620 colon) was 27.8 µM. The GI50 (SK-MEL-28 melanoma) was 10.4 µM, the TGI (SK-MEL-28 melanoma) was 22.2 µM and the GI50 (LOX IMVI melanoma) was 1.25 µM. The TGI (LOX IMVI melanoma) was 13.8 µM, the GI50 (HCT-15 colon) was 1.47 µM and the TGI (HCT-15 colon) was 15.6 µM. It also gave a GI50 (SK-MEL-5 melanoma) of 1.08 µM, a TGI (SK-MEL-5 melanoma) of 2.53 µM and a GI50 (TK-10 renal) of 9.81 µM. The TGI (TK-10 renal) was 21.6 µM, the GI50 (A498 renal) was 0.839 µM and the TGI (A498 renal) was 18.5 µM. It also gave a GI50 (UACC-62 melanoma) of 1 µM, a TGI (UACC-62 melanoma) of 16 µM and a GI50 (NCI/ADR-RES ovarian) of 2.44 µM. It also gave a TGI (NCI/ADR-RES ovarian) of 11 µM, a GI50 (CAKI-1 renal) of 1.15 µM and a TGI (CAKI-1 renal) of 14.1 µM.
